Assay: Stability of cannabinoid compounds and Vitamin E components in Beverage 2 (AB Red) by LCMSMS
Format: physicochemical

C=C(C)[C@@H]1CCC(C)=C[C@H]1c1c(O)cc(CCCCC)c(C(=O)O)c1O [CBDA, cannabidiolic acid]
Stability of Plant-Derived Cannabinoid Compounds in AB Red (stored at 8° C., 0 days): 1.68 µg/mL | Stability of Plant-Derived Cannabinoid Compounds in AB Red (stored at 8° C., 1 days): 1.69 µg/mL | Stability of Plant-Derived Cannabinoid Compounds in AB Red (stored at 8° C., 2 days): 1.66 µg/mL | Stability of Plant-Derived Cannabinoid Compounds in AB Red (stored at 8° C., 3 days): 1.64 µg/mL | Stability of Plant-Derived Cannabinoid Compounds in AB Red (stored at 8° C., 5 days): 1.67 µg/mL | Stability of Plant-Derived Cannabinoid Compounds in AB Red (stored at 8° C., 8 days): 1.68 µg/mL | Stability of Plant-Derived Cannabinoid Compounds in AB Red (stored at 8° C., 9 days): 1.65 µg/mL | Stability of Plant-Derived Cannabinoid Compounds in AB Red (stored at 8° C., 10 days): 1.67 µg/mL | Stability of Plant-Derived Cannabinoid Compounds in AB Red (stored at 8° C., 11 days): 1.65 µg/mL | Stability of Plant-Derived Cannabinoid Compounds in AB Red (stored at 8° C., 12 days): 1.68 µg/mL | Stability of Plant-Derived Cannabinoid Compounds in AB Red (stored at 8° C., 15 days): 1.67 µg/mL | Stability of Plant-Derived Cannabinoid Compounds in AB Red (stored at 8° C., 16 days): 1.69 µg/mL | Stability of Plant-Derived Cannabinoid Compounds in AB Red (stored at 8° C., 17 days): 1.64 µg/mL | Stability of Plant-Derived Cannabinoid Compounds in AB Red (stored at 8° C., 18 days): 1.65 µg/mL | Stability of Plant-Derived Cannabinoid Compounds in AB Red (stored at 8° C., 19 days): 1.68 µg/mL | Stability of Plant-Derived Cannabinoid Compounds in AB Red (stored at 8° C., 22 days): 1.70 µg/mL | Stability of Plant-Derived Cannabinoid Compounds in AB Red (stored at 8° C., 23 days): 1.63 µg/mL | Stability of Plant-Derived Cannabinoid Compounds in AB Red (stored at 8° C., 24 days): 1.70 µg/mL | Stability of Plant-Derived Cannabinoid Compounds in AB Red (stored at 8° C., 25 days): 1.63 µg/mL | Stability of Plant-Derived Cannabinoid Compounds in AB Red (stored at 8° C., 26 days): 1.63 µg/mL | Stability of Plant-Derived Cannabinoid Compounds in AB Red (stored at 8° C., 29 days): 1.66 µg/mL | Stability of Plant-Derived Cannabinoid Compounds in AB Red (stored at 8° C., 30 days): 1.70 µg/mL | Stability of Plant-Derived Cannabinoid Compounds in AB Red (stored at 8° C., 60 days): 1.66 µg/mL | Stability of Plant-Derived Cannabinoid Compounds in AB Red (stored at 8° C., 90 days): 1.68 µg/mL | Stability of Plant-Derived Cannabinoid Compounds in AB Red (stored at 8° C., 120 days): 1.65 µg/mL | Stability of Plant-Derived Cannabinoid Compounds in AB Red (stored at 8° C., 150 days): 1.66 µg/mL | Stability of Plant-Derived Cannabinoid Compounds in AB Red (stored at 8° C., 180 days): 1.60 µg/mL | Stability of Plant-Derived Cannabinoid Compounds in AB Red (stored at 8° C., 210 days): 1.65 µg/mL | Stability of Plant-Derived Cannabinoid Compounds in AB Red (stored at 8° C., 240 days): 1.66 µg/mL | Stability of Plant-Derived Cannabinoid Compounds in AB Red (stored at 8° C., 270 days): 1.63 µg/mL | Stability of Plant-Derived Cannabinoid Compounds in AB Red (stored at 8° C., 300 days): 1.65 µg/mL | Stability of Plant-Derived Cannabinoid Compounds in AB Red (stored at 8° C., 330 days): 1.60 µg/mL | Stability of Plant-Derived Cannabinoid Compounds in AB Red (stored at 8° C., 360 days): 1.62 µg/mL | Stability of Plant-Derived Cannabinoid Compounds in AB Red (stored at 8° C., 390 days): 1.63 µg/mL | Stability of Plant-Derived Cannabinoid Compounds in AB Red (stored at 8° C., 420 days): 1.63 µg/mL | Stability of Plant-Derived Cannabinoid Compounds in AB Red (stored at 8° C., 450 days): 1.63 µg/mL | Stability of Plant-Derived Cannabinoid Compounds in AB Red (stored at 8° C., 480 days): 1.60 µg/mL | Stability of Plant-Derived Cannabinoid Compounds in AB Red (stored at 8° C., 510 days): 1.55 µg/mL | Stability of Plant-Derived Cannabinoid Compounds in AB Red (stored at 8° C., 540 days): 1.55 µg/mL | Stability of Plant-Derived Cannabinoid Compounds in AB Red (stored at 8° C., 570 days): 1.54 µg/mL | Stability of Plant-Derived Cannabinoid Compounds in AB Red (stored at 21-25° C., 0 days): 1.68 µg/mL | Stability of Plant-Derived Cannabinoid Compounds in AB Red (stored at 21-25° C., 1 days): 1.70 µg/mL | Stability of Plant-Derived Cannabinoid Compounds in AB Red (stored at 21-25° C., 2 days): 1.65 µg/mL | Stability of Plant-Derived Cannabinoid Compounds in AB Red (stored at 21-25° C., 3 days): 1.64 µg/mL | Stability of Plant-Derived Cannabinoid Compounds in AB Red (stored at 21-25° C., 5 days): 1.69 µg/mL | Stability of Plant-Derived Cannabinoid Compounds in AB Red (stored at 21-25° C., 8 days): 1.64 µg/mL | Stability of Plant-Derived Cannabinoid Compounds in AB Red (stored at 21-25° C., 9 days): 1.63 µg/mL | Stability of Plant-Derived Cannabinoid Compounds in AB Red (stored at 21-25° C., 10 days): 1.61 µg/mL | Stability of Plant-Derived Cannabinoid Compounds in AB Red (stored at 21-25° C., 11 days): 1.64 µg/mL | Stability of Plant-Derived Cannabinoid Compounds in AB Red (stored at 21-25° C., 12 days): 1.70 µg/mL | Stability of Plant-Derived Cannabinoid Compounds in AB Red (stored at 21-25° C., 15 days): 1.64 µg/mL | Stability of Plant-Derived Cannabinoid Compounds in AB Red (stored at 21-25° C., 16 days): 1.67 µg/mL | Stability of Plant-Derived Cannabinoid Compounds in AB Red (stored at 21-25° C., 17 days): 1.63 µg/mL | Stability of Plant-Derived Cannabinoid Compounds in AB Red (stored at 21-25° C., 18 days): 1.65 µg/mL | Stability of Plant-Derived Cannabinoid Compounds in AB Red (stored at 21-25° C., 19 days): 1.70 µg/mL | Stability of Plant-Derived Cannabinoid Compounds in AB Red (stored at 21-25° C., 22 days): 1.66 µg/mL | Stability of Plant-Derived Cannabinoid Compounds in AB Red (stored at 21-25° C., 23 days): 1.63 µg/mL | Stability of Plant-Derived Cannabinoid Compounds in AB Red (stored at 21-25° C., 24 days): 1.65 µg/mL | Stability of Plant-Derived Cannabinoid Compounds in AB Red (stored at 21-25° C., 25 days): 1.64 µg/mL | Stability of Plant-Derived Cannabinoid Compounds in AB Red (stored at 21-25° C., 26 days): 1.67 µg/mL | Stability of Plant-Derived Cannabinoid Compounds in AB Red (stored at 21-25° C., 29 days): 1.62 µg/mL | Stability of Plant-Derived Cannabinoid Compounds in AB Red (stored at 21-25° C., 30 days): 1.68 µg/mL | Stability of Plant-Derived Cannabinoid Compounds in AB Red (stored at 21-25° C., 60 days): 1.59 µg/mL | Stability of Plant-Derived Cannabinoid Compounds in AB Red (stored at 21-25° C., 90 days): 1.60 µg/mL | Stability of Plant-Derived Cannabinoid Compounds in AB Red (stored at 21-25° C., 120 days): 1.64 µg/mL | Stability of Plant-Derived Cannabinoid Compounds in AB Red (stored at 21-25° C., 150 days): 1.58 µg/mL | Stability of Plant-Derived Cannabinoid Compounds in AB Red (stored at 21-25° C., 180 days): 1.64 µg/mL | Stability of Plant-Derived Cannabinoid Compounds in AB Red (stored at 21-25° C., 210 days): 1.64 µg/mL | Stability of Plant-Derived Cannabinoid Compounds in AB Red (stored at 21-25° C., 240 days): 1.60 µg/mL | Stability of Plant-Derived Cannabinoid Compounds in AB Red (stored at 21-25° C., 270 days): 1.65 µg/mL | Stability of Plant-Derived Cannabinoid Compounds in AB Red (stored at 21-25° C., 300 days): 1.58 µg/mL | Stability of Plant-Derived Cannabinoid Compounds in AB Red (stored at 21-25° C., 330 days): 1.65 µg/mL | Stability of Plant-Derived Cannabinoid Compounds in AB Red (stored at 21-25° C., 360 days): 1.58 µg/mL | Stability of Plant-Derived Cannabinoid Compounds in AB Red (stored at 21-25° C., 390 days): 1.61 µg/mL | Stability of Plant-Derived Cannabinoid Compounds in AB Red (stored at 21-25° C., 420 days): 1.59 µg/mL | Stability of Plant-Derived Cannabinoid Compounds in AB Red (stored at 21-25° C., 450 days): 1.57 µg/mL | Stability of Plant-Derived Cannabinoid Compounds in AB Red (stored at 21-25° C., 480 days): 1.57 µg/mL | Stability of Plant-Derived Cannabinoid Compounds in AB Red (stored at 21-25° C., 510 days): 1.56 µg/mL | Stability of Plant-Derived Cannabinoid Compounds in AB Red (stored at 21-25° C., 540 days): 1.57 µg/mL | Stability of Plant-Derived Cannabinoid Compounds in AB Red (stored at 21-25° C., 570 days): 1.54 µg/mL
